Structures can show the parent of a compound that is named as a salt. Marks after values point to notes of the source that are not given here.
Experiments:
[1] = Physical characteristics of the compounds (solubility, stability); conditions: easily dissolved in organic solvent having lower polarity than ethanol, but not water
C. elegans = test: Anti-obesity effect (fat content by Nile red staining) in C. elegans; type: in vivo, Caenorhabditis elegans; parameters: key to Fat content: A low fat content was indicated by +1; a high fat content was assigned with +4; conditions: for inhibitory effect on adipogenesis: low concentration of 1 μg/ml; for Fat content: Nile red staining
Method: Using a dissecting microscope (×50 magnification), C. elegans at the 4th stage (L4, the imaginal stage) was transferred to 3 ml of a cholesterol-supplemented S-medium (containing NaCl, K2HPO4, KH2PO4, cholesterol, citrate, trace metals, CaCl2 and MgSO4), and 100 μl of E. coli OP50 (OD600=0.2) liquid-cultured overnight before 1 day of experiment was added thereto. The Pterocarpus indicus fraction sample was added to the liquid media containing C. elegans, followed by rotary culture in a dark room at 16° C. and 100 rpm. The water-insoluble sample was dissolved in DMSO and added to the culture media. The final concentration of DMSO was adjusted below 1%. […] 24 hours after the sample was added to C. elegans, 30 μl of a Nile red dye at a concentration of 10 μg/ml was added (final concentration of Nile red was adjusted to 100 ng/ml) to the media, followed by continuous rotary culture for 2 days.
In order to arrest the locomotory movement of C. elegan, 20 μl of 0.3% NaN3 was dropped on a slide glass to which 100 μl of C. elegans cultured in the presence of Nile red for 2 days was added. Under a fluorescence microscope, adipocytes of C. elegans emitting red fluorescence in a dark room were micrographed and compared with the control group to thereby determine the amount of fat. A low fat content was indicated by +1, whereas a high fat content was assigned with +4. Adult (L4 stage) C. elegans immediately prior to egg-laying were used in this Example. Therefore, the eggs were hatched after sample treatment and most of adult C. elegans were killed at 3 day post-treatment. A fat content was examined in C. elegans which had newly hatched and grown.

[2] = Biochemical index of blood and liver tissue in mice fed high fat diet containing sesquiterpene compound; type: in vivo, mouse; conditions: for Liver Triglyceride / IRI (insulin resistance index) / Plasma Glucose / Plasma Insulin / Plasma Total cholesterol / Plasma Triglyceride: HFD with compound in diet, 8 weeks; for IRI (insulin resistance index) / Plasma Glucose / Plasma Insulin / Plasma Total cholesterol / Plasma Triglyceride: fasted
Method: The composition of diet is described in the following Table 5. […] After experimental animals were fasted for above 12 hrs, they were anesthetized with diethylether, and their blood, liver and visceral fat tissues (epididymal fat, perirenal fat, mesenteric fat and abdominal fat) were collected. And then, they were washed with 0.1 M phosphate-buffered saline (pH 7.4), and their weights were measured. […] Concentration of total Plasma cholesterol, triglyceride and glucose was measured twice according to commercially available measurement kit (Bio Clinical system), respectively. Insulin concentration was measured by ELISA using mouse insulin kit (Shibayaki, Japan). […] The homogenate was mixed with 5 ml of chloroform:methanol solution (2:1, v/v), and centrifuged at 1,000×g for 10 min to separate lower phase. […] Three ml of chloroform:methanol:0.05% CaCl2 solution (3:48:47, v/v/v) were added to the resulting lower phase, and thoroughly mixed for 1 min. The mixture was centrifuged at 1,000×g for 10 min. The final lower phase was completely dried on nitrogen gas, and the dried lipid was dissolved in 1 ml of methanol to use analysis of lipid component. Triglyceride concentration in lipid extracts from liver tissues was measured according to commercially available measurement kit (Bio Clinical system) equal to that used in analysis of plasma.

[3] = Body weight gain and total visceral fat weight in mice fed high fat diet containing sesquiterpene compound; type: in vivo, mouse; conditions: for Body weight gain / total visceral fat weight: HFD with 0.2% compound in diet, C57BL mice, 8 weeks; for total visceral fat weight: epididymal, perirenal, mesenteric and abdominal fat
Text: Obesity-inducible diet used in the present experiment was high fat diet (HFD: 40% fat calorie, 17 g Lard+3% maize oil/100 g diet) developed by the present inventors and the composition of diet containing sesquiterpene compounds was equal to that of HFD but each 8 sesquiterpene compounds with a concentration of 0.2% was included in diet [cedryl acetate-containing diet, (−)-α-cedrene-containing diet, (+)-β-cedrene-containing diet, cedrene epoxide-containing diet, methyl cedryl ether-containing diet, methyl cedryl ketone-containing diet, cedrenol-containing diet and (+)-cedrol-containing diet]. The composition of diet is described in the following Table 5.
6-old-week C57BL/63 male mice were adapted to laboratory environment during one week and divided into HFD control and 8 test groups according to randommized block design. […] Diet was supplied with water at 10-11 o'clock every morning, and intake amount of diet and body weight was measured every day and once of three days, respectively. The body weight was measure at 2 hrs after removing feed bin to block sudden change of body weight according to feed intake, and feed efficiency was calculated by dividing body weight gain by amount of total intake amount of diet during total experimental period which is from initial day supplying experimental diet to sacrificed day. After experimental animals were fasted for above 12 hrs, they were anesthetized with diethylether, and their blood, liver and visceral fat tissues (epididymal fat, perirenal fat, mesenteric fat and abdominal fat) were collected. And then, they were washed with 0.1 M phosphate-buffered saline (pH 7.4), and their weights were measured. Blood taken from abdominal aorta was centrifuged at 1,000×g for 15 min to separate plasma.

SMILES	Solubility [1]	inhibitory effect on adipogenesis (C. elegans)	Fat content (C. elegans; sample concentration 1 μg/ml)	Fat content (C. elegans; sample concentration 10 μg/ml)	Fat content (C. elegans; sample concentration 100 μg/ml)	all fasting glucose, blood insulin concentration and insulin resistance index in comparison with control ([2]; 8-week)	Liver Triglyceride [2]	IRI (insulin resistance index) [2]	Plasma Glucose [2]	Plasma Insulin [2]	Plasma Total cholesterol [2]	Plasma Triglyceride [2]	Body weight gain [3]	total visceral fat weight [3]	Visceral fat weight compared to control ([3]; diet fed during 8-week)	triglyceride concentration of liver tissue reduced compared to HFD ([2]; 8-week)	Plasma triglyceride concentration reduced compared to HFD ([2]; 8-week)	blood insulin concentration reduced compared to HFD ([2]; 8-week)	fasting glucose reduced compared to HFD ([2]; 8-week)	insulin resistance index reduced compared to HFD ([2]; 8-week)
C=C1[C@@H](O)C[C@@]23C[C@@H]1C(C)(C)C2CC[C@H]3C (single isomer, unassigned; (+)) [(+)-8(15)-cedrene-9-ol, (+)-8(15)-Cedren-9-ol]	Fat soluble	notably inhibitory effect on adipogenesis	+2	+1	+2	–	–	–	–	–	–	–	–	–	–	–	–	–	–	–
C=C1C2CCC3C2[C@@H](C(C)C)CC[C@@]13C (single isomer, unassigned; (+)) [(+)-sativene]	Fat soluble	notably inhibitory effect on adipogenesis	+2	+2	+1	–	–	–	–	–	–	–	–	–	–	–	–	–	–	–
CC1(C)C=C[C@]23CCC[C@](C)(CCC12)C3 (single isomer, unassigned; (-)) [(−)-clovene, (−)-Clovene]	Fat soluble	notably inhibitory effect on adipogenesis	+2	+2	+2	–	–	–	–	–	–	–	–	–	–	–	–	–	–	–
C[C@@H]1CC[C@H]2C(C)(C)[C@H]3C[C@@]12CC[C@@]3(C)O [(+)-cedrol]	–	–	+4	+4	+3	prone to be decreased in comparison with control, but statistical significance was not shown	49.1 ± 4.10 µmol/g	1.45 ± 0.22 10^−3 pmol insulin × mmol glucose × L^−2	9.8 ± 0.99 mmol/L	0.86 ± 0.07 ng/mL	2.98 ± 0.20 mmol/L	1.31 ± 0.10 mmol/L	10.9 ± 0.85 g/8 weeks	92.4 ± 5.31 mg/g body weight	higher than that in control	–	–	–	–	–
CC1=CC[C@]23C[C@H]1C(C)(C)C2CC[C@H]3C (stereo partly drawn) [(+)-α-funebrene]	Fat soluble	notably inhibitory effect on adipogenesis	+3	+2	+2	–	–	–	–	–	–	–	–	–	–	–	–	–	–	–
C=C1CC[C@@]23C[C@@H]1C(C)(C)C2CC[C@H]3C (stereo partly drawn) [(+)-β-cedrene]	Fat soluble	notably inhibitory effect on adipogenesis	+2	+3	+2	–	16.6 ± 1.28 µmol/g	0.78 ± 0.11* 10^−3 pmol insulin × mmol glucose × L^−2	6.80 ± 0.41 mmol/L	0.70 ± 0.08 ng/mL	2.57 ± 0.19 mmol/L	1.32 ± 0.11 mmol/L	7.13 ± 0.89 g/8 weeks	48.0 ± 8.27 mg/g body weight	–	63%	–	–	–	–
C=C1CC[C@]23C[C@H]1C(C)(C)C2CC[C@H]3C (stereo partly drawn) [(+)-β-funebrene]	Fat soluble	notably inhibitory effect on adipogenesis	+1	+1	+2	–	–	–	–	–	–	–	–	–	–	–	–	–	–	–
C[C@@H]1CC[C@H]2C(C)(C)[C@H]3C[C@@]12CC[C@]3(C)O [(−)-epicedrol, (−)—epicedrol]	–	notably inhibitory effect on adipogenesis	+1	+1	+3	–	–	–	–	–	–	–	–	–	–	–	–	–	–	–
CC1=CC[C@@]23C[C@@H]1C(C)(C)C2CC[C@H]3C (stereo partly drawn) [(−)-α-cedrene]	Fat soluble	notably inhibitory effect on adipogenesis	+2	+2	+2	–	16.1 ± 0.60 µmol/g	0.75 ± 0.13* 10^−3 pmol insulin × mmol glucose × L^−2	6.41 ± 0.57 mmol/L	0.67 ± 0.04 ng/mL	2.11 ± 0.16 mmol/L	0.81 ± 0.15 mmol/L	6.73 ± 1.02 g/8 weeks	40.0 ± 4.31 mg/g body weight	–	64%	50%	–	–	–
CC(=O)O[C@]1(C)CC[C@@]23C[C@@H]1C(C)(C)[C@@H]2CC[C@H]3C [Cedryl acetate, cedryl acetate]	Fat soluble	–	+4	+3	+2	–	23.8 ± 2.33 µmol/g	0.44 ± 0.06* 10^−3 pmol insulin × mmol glucose × L^−2	4.67 ± 0.40 mmol/L	0.49 ± 0.07 ng/mL	2.53 ± 0.10 mmol/L	1.12 ± 0.06 mmol/L	8.54 ± 0.84 g/8 weeks	46.4 ± 3.12 mg/g body weight	–	–	30%	49%	54%	73%
C[C@@H]1CC[C@H]2C(C)(C)[C@H]3C[C@@]12CC1OC13C (stereo partly drawn) [cedrene epoxide, Cedrene epoxide]	Fat soluble	–	+4	+3	+2	–	27.8 ± 2.41 µmol/g	0.94 ± 0.14* 10^−3 pmol insulin × mmol glucose × L^−2	7.34 ± 0.68 mmol/L	0.71 ± 0.04 ng/mL	2.81 ± 0.18 mmol/L	1.32 ± 0.08 mmol/L	12.4 ± 1.36 g/8 weeks	65.6 ± 4.43 mg/g body weight	–	–	–	–	–	–
CC1=CCC23CC1C(C)(CO)C2CCC3C (stereo not drawn) [cedrenol, Cedrenol]	Fat soluble	notably inhibitory effect on adipogenesis	+2	+1	+1	–	25.0 ± 1.81 µmol/g	0.71 ± 0.09* 10^−3 pmol insulin × mmol glucose × L^−2	7.24 ± 0.56 mmol/L	0.58 ± 0.07 ng/mL	2.42 ± 0.22 mmol/L	1.20 ± 0.10 mmol/L	9.51 ± 1.47 g/8 weeks	57.8 ± 4.02 mg/g body weight	–	–	–	–	–	–
C[C@@H]1CC[C@H]2C(C)(C)[C@H]3C[C@@]12CC[C@@]3(C)OC=O [cedryl formate, Cedryl formate]	Fat soluble	notably inhibitory effect on adipogenesis	+3	+1	+1	–	–	–	–	–	–	–	–	–	–	–	–	–	–	–

From patent US8481592B2, “Uses of sesquiterpene derivatives” (Kwang Dong Pharm Co., Ltd., priority 2008, dated 2013)
